The structures appear in SMILES notation.

Holding throughout (format): cell-based
Assay [1] addresses Met (phospho-Met, HGF-stimulated PC-3 prostate cancer cells) (Homo sapiens (Human), UniProt P08581). In words: Met autophosphorylation ELISA in PC-3 cells (Example F). Particulars: cellular activity; Met autophosphorylation ELISA in PC-3 cells; read-out: c-Met IC50. The essentials: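 IC50 values derive from a 4-parameter logistic fit of phospho-Met (panTyr) sandwich ELISA signals in PC-3 lysates, scaled between DMSO and reference-inhibitor wells. Cells, starved 3 h in serum-free medium, had 1 h compound exposure (8 doses, 0.3% DMSO) before 10 min stimulation with 100 ng/mL HGF.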
Background: An ELISA detects its analyte on a solid surface through an enzyme-linked reagent.

Assay [2] concerns the target KDR (phospho-KDR, VEGF165-stimulated HUVEC cells) (Homo sapiens (Human), UniProt P35968). In words: KDR autophosphorylation ELISA in HUVEC cells (Example G). Particulars: cellular activity; KDR autophosphorylation ELISA in HUVEC cells. In a few lines: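 Read-out is phospho-KDR measured by ELISA in lysates of VEGF165-stimulated (100 ng/mL, 5 min) HUVEC that were serum-starved 24 h and then pre-exposed 1 h to compound across 8 doses in 0.3% DMSO. Unstimulated lysates defined 0% and stimulated vehicle lysates 100% activity; IC50 values come from 4-parameter logistic regression.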

The target of assay [3] is AXL (phospho-AXL, Gas6-stimulated A-172 glioblastoma cells) (Homo sapiens (Human), UniProt P30530). In words: AXL autophosphorylation ELISA in A-172 cells (Example E). Particulars: cellular activity; AXL autophosphorylation ELISA in A-172 cells; read-out: Axl IC50. In a few lines:
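Phospho-AXL was measured by ELISA in lysates of Gas6-stimulated A-172 cells, starved 24 h in serum-free medium and exposed 1 h to an 8-point compound dilution at 0.3% DMSO.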

Chain of KDR (phospho-KDR, VEGF165-stimulated HUVEC cells) (P35968 20-1356): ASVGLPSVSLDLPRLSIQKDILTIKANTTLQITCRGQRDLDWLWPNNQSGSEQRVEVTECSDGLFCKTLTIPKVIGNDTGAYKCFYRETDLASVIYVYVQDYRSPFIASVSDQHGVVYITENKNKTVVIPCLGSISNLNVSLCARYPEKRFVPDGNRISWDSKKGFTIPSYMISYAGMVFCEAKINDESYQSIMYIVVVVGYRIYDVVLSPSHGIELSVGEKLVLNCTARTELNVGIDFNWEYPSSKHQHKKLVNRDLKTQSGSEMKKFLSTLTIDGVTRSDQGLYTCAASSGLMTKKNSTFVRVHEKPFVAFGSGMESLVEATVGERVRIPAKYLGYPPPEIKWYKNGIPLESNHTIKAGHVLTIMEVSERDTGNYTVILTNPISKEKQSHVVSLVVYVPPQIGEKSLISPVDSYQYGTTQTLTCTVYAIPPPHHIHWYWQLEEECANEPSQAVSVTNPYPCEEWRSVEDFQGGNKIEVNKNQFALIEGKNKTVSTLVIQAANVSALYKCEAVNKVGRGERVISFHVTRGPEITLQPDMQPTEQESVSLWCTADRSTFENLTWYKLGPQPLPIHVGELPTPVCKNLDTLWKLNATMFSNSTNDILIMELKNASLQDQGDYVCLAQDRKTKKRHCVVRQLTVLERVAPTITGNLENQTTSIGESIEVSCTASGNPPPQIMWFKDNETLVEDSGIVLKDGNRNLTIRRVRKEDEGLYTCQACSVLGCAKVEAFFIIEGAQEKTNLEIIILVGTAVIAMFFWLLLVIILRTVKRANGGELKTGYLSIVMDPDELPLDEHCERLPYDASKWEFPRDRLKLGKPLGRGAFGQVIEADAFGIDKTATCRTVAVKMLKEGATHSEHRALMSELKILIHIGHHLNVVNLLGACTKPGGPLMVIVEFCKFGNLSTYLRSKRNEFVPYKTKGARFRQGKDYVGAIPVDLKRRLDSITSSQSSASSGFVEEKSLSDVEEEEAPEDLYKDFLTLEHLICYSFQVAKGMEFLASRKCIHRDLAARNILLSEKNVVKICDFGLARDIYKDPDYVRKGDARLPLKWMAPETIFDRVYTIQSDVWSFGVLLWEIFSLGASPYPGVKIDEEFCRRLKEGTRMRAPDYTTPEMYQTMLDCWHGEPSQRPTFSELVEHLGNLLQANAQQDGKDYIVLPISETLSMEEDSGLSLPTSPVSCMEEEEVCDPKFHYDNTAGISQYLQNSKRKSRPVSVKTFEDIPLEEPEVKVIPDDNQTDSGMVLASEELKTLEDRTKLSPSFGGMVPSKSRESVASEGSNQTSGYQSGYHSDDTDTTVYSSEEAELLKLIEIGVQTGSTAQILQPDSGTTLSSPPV
Chain of Met (phospho-Met, HGF-stimulated PC-3 prostate cancer cells) (P08581 25-1390): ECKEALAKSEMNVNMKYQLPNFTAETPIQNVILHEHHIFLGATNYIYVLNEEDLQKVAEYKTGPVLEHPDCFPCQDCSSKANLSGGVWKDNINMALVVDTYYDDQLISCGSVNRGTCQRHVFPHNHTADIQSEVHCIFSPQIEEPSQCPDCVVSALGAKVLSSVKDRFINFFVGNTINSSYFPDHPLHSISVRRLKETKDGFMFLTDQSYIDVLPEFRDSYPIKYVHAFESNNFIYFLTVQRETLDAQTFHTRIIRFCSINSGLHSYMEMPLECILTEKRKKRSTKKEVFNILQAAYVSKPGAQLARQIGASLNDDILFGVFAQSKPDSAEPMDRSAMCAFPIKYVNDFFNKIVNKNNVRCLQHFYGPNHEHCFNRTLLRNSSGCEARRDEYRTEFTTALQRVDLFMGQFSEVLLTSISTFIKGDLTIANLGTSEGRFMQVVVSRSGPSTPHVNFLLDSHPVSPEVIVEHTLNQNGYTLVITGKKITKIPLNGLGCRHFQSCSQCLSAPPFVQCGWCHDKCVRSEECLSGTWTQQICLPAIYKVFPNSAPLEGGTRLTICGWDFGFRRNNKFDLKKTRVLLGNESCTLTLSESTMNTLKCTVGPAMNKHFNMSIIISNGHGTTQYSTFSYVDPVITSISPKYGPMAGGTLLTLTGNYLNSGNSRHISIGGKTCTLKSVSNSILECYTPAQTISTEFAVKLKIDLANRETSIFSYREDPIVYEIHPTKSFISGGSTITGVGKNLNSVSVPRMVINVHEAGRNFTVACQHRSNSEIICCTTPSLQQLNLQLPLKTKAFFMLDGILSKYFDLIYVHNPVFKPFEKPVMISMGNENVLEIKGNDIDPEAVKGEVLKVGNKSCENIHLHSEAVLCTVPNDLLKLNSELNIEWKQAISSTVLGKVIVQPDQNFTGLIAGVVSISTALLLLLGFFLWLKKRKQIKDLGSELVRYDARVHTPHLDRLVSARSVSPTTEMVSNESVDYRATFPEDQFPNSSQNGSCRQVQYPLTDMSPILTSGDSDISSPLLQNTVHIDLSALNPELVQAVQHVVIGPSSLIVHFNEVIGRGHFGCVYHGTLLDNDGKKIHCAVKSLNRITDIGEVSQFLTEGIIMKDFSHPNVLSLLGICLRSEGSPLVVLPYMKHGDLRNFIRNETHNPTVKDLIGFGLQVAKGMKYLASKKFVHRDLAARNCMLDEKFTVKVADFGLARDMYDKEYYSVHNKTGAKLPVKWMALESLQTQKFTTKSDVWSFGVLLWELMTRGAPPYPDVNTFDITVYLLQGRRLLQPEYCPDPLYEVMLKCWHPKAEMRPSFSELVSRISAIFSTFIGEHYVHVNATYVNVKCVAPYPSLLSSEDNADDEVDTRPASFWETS
Chain of AXL (phospho-AXL, Gas6-stimulated A-172 glioblastoma cells) (P30530 26-894): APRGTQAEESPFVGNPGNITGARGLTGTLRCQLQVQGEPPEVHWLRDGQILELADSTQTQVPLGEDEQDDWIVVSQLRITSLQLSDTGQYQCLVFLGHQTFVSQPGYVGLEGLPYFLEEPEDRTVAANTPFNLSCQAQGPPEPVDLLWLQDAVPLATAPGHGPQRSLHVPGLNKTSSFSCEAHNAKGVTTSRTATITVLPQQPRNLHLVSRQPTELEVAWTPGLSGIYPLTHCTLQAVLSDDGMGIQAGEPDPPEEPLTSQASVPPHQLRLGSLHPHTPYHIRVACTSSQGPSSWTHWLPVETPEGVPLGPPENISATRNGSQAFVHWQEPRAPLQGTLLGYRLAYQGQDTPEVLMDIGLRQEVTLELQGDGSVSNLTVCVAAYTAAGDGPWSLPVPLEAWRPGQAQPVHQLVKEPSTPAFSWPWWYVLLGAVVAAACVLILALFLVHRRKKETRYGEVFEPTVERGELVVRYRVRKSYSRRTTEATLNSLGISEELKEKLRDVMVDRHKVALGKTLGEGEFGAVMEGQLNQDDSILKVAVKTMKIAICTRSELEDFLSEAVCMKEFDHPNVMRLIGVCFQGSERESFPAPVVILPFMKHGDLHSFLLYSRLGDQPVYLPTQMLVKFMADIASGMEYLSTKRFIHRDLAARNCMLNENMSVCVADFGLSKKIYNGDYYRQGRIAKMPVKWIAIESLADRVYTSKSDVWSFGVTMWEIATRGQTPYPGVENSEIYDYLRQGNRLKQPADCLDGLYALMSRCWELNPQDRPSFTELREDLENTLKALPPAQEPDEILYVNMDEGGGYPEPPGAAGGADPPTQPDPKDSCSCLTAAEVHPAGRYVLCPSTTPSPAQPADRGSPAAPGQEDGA

As for `Cc1ncc(C(=O)Nc2ccc(Oc3ccnc4cnc(Cl)cc34)c(F)c2)c(O)c1-c1ccc(F)cc1` [Compound 641, N-[4-[(6-chloro-1,7-naphthyridin-4-yl)oxy]-3-fluorophenyl]-5-(4-fluorophenyl)-4-hydroxy-6-methylpyridine-3-carboxamide], the IC50 in assay [1] and in assay [2] was under 100 nM in each case.

Regarding `Cc1ncc(C(=O)Nc2ccc(Oc3ccnc4cnccc34)c(F)c2)c(O)c1-c1ccc(F)cc1` [Compound 642, N-[3-fluoro-4-(1,7-naphthyridin-4-yloxy)phenyl]-5-(4-fluorophenyl)-4-hydroxy-6-methylpyridine-3-carboxamide], the IC50 in assay [3], in assay [1] and in assay [2] was under 100 nM throughout.

Consider `Cc1ncc(C(=O)Nc2ccc(Oc3ccnc4cnccc34)cc2)c(O)c1-c1ccc(F)cc1` [Compound 643, 5-(4-fluorophenyl)-4-hydroxy-6-methyl-N-[4-(1,7-naphthyridin-4-yloxy)phenyl]pyridine-3-carboxamide], for which the IC50 in assay [1] and in assay [2] was under 100 nM in each case.

Turning to `COc1cc2c(Oc3ccc(NC(=O)c4cnc(C)c(-c5ccc(F)cc5)c4O)cc3)ccnc2cn1` [Compound 644, 5-(4-fluorophenyl)-4-hydroxy-N-[4-[(6-methoxy-1,7-naphthyridin-4-yl)oxy]phenyl]-6-methylpyridine-3-carboxamide], the IC50 in assay [1] and in assay [2] was under 100 nM throughout.

On to `Cc1cc2c(Oc3ccc(NC(=O)c4cnc(C)c(-c5ccc(F)cc5)c4O)cc3F)ccnc2cn1` [Compound 645, N-[3-fluoro-4-[(6-methyl-1,7-naphthyridin-4-yl)oxy]phenyl]-5-(4-fluorophenyl)-4-hydroxy-6-methylpyridine-3-carboxamide], for which the IC50 in assay [1] and in assay [2] was under 100 nM throughout.

What is called IC50 is the concentration that inhibits the measured activity by half.
